This note sets out measurements from patent US7220770B2, “Heterocyclo-substituted imidazoles for the treatment of inflammation” (priority 1994, dated 2007).

The structures appear in SMILES notation.

One may read the melting point as the temperature of the solid-liquid transition.

`CS(=O)(=O)c1ccc(-n2cc(CSCc3ccccc3)nc2-c2ccc(Cl)cc2)cc1` [Example 167, 2-(4-Chlorophenyl)-1-[4-(methylsulfonyl)phenyl]-4-[[(4-phenylmethyl)thio]methyl]-1H-imidazole] yielded a melting point of 41 °C.
Regarding `CC(C)SCc1cn(-c2ccc(S(C)(=O)=O)cc2)c(-c2ccc(Cl)cc2)n1` [Example 168, 2-(4-Chlorophenyl)-4-[[(1-methylethyl)thio]methyl]-1-[4-(methylsulfonyl)phenyl]-1H-imidazole], the melting point was determined as 118 °C.
The figure for `Cc1ccnc(-c2nc(C(F)(F)F)cn2-c2ccc(S(N)(=O)=O)cc2)c1` [Example 40, 4-[2-(4-Methylpyridin-2-yl)-4-(trifluoromethyl)-1H-imidazol-1-yl]benzenesulfonamide] is 283 °C; for `CS(=O)(=O)c1ccc(-n2cc(C#N)nc2-c2ccc(Cl)cc2)cc1` [Example 174, 2-(4-Chlorophenyl)-1-[4-(methylsulfonyl)phenyl]-1H-imidazole-4-carbonitrile] it is 205 °C; for `CS(=O)(=O)c1ccc(-n2cc(CC(=O)O)nc2-c2ccc(Cl)cc2)cc1` [Example 176, 2-(4-Chlorophenyl)-1-[4-(methylsulfonyl)phenyl]-1H-imidazole-4-acetic acid] it is 263 to 264 °C.
`CS(=O)(=O)c1ccc(-n2cc(-c3ccccc3)nc2-c2ccc(Cl)cc2)cc1` [Example 6] had a melting point of 202 °C.
The figure for `CS(=O)(=O)c1ccc(-n2cc(CF)nc2-c2ccc(Cl)cc2)cc1` [Example 164, 2-(4-Chlorophenyl)-4-fluoromethyl-1-[4-(methylsulfonyl)phenyl]-1H-imidazole] is 165 °C.
Then `CC(C)c1ccccc1SCc1cn(-c2ccc(S(C)(=O)=O)cc2)c(-c2ccc(Cl)cc2)n1` [Example 173], with 68 to 73 °C; and `CS(=O)(=O)c1ccc(-n2cc(-c3ccc(F)cc3)nc2-c2ccccn2)cc1` [Example 38, 2-[4-(4-Fluorophenyl)-1-[4-(methylsulfonyl)phenyl]-1H-imidazol-2-yl]pyridine], with 88 to 91 °C; and `CS(=O)(=O)c1ccc(C2=NC(O)(C(F)(F)F)CN2c2ccc(F)cc2)cc1` (stereo not shown) [Example 3, 1-(4-Fluorophenyl)-4-hydroxy-2-[4-(methyloulfonyl)phenyl]-4-(trifluoromethyl)-4,5-dihydro-1H-imidazole], with 209 °C.
With `Cc1ccc(-c2nc(C(F)(F)F)cn2-c2ccc(S(C)(=O)=O)cc2)cn1` [Example 31, 2-Methyl-5-[1-[4-(methylsulfonyl)phenyl]-4-trifluoromethyl-1H-imidazol-2-yl]pyridine], the melting point worked out at 163 °C.
The figure for `Cc1ccc(-c2nc(C(F)(F)F)cn2-c2ccc(S(C)(=O)=O)cc2)nc1` [Example 33, 5-Methyl-2-[1-[4-(methylsulfonyl)phenyl]-4-trifluoromethyl-1H-imidazol-2-yl]pyridine] is 196 °C; for `CS(=O)(=O)c1ccc(-n2cc(-c3ccc(F)cc3)nc2-c2ccc(Cl)cc2)cc1` [Example 7, 2-(4-Chlorophenyl)-4-(4-fluorophenyl)-1-[4-(methyloulfonyl)phenyl]-1H-imidazole] it is 180 °C; for `Cc1ncccc1-c1nc(C(F)(F)F)cn1-c1ccc(S(C)(=O)=O)cc1` [Example 44, 2-Methyl-3-[1-[4-(methyloulfonyl)phenyl]-4-(trifluoromethyl)-1H-imidazol-2-yl]pyridine] it is 160 to 161 °C.
The figure for `Cc1cccc(-c2nc(C(F)(F)F)cn2-c2ccc(S(C)(=O)=O)cc2)n1` [Example 32, 2-Methyl-6-[1-[4-(methylsulfonyl)phenyl]-4-trifluoromethyl-1H-imidazol-2-yl]pyridine] is 205 °C; for `CS(=O)(=O)c1ccc(-n2cc(-c3cccc(Cl)c3)nc2-c2ccc(Cl)cc2)cc1` [Example 12, 2-(4-Chlorophenyl)-4-(3-chlorophenyl)-1-[4-(methyloulfonyl)phenyl]-1H-imidazole] it is 156 to 159 °C; for `CS(=O)(=O)c1ccc(-n2cc(-c3cccc(F)c3)nc2-c2ccc(Cl)cc2)cc1` [Example 14, 2-(4-Chlorophenyl)-4-(3-fluorophenyl)-1-[4-(methylsulfonyl)phenyl]-1H-imidazole] it is 194 to 196 °C.
As for `CCOC(=O)C1(O)CN(c2ccc(S(C)(=O)=O)cc2)C(c2ccc(Cl)cc2)=N1` (stereo not shown) [Example 156, Ethyl [2-(4-chlorophenyl)-4-hydroxy-1-[4-(methylsulfonyl)phenyl]-4,5-dihydro-1H-imidazol-4-yl]carboxylate], the melting point came to 162 °C.
Then `Cc1ccc(-c2nc(C(F)(F)F)cn2-c2ccc(S(C)(=O)=O)cc2)cc1Cl` [Example 16, 2-(3-Chloro-4-methylphenyl)-1-[4-(methylsulfonyl)phenyl]-4-(trifluoromethyl)-1H-imidazole], with 206 °C; and `CS(=O)(=O)c1ccc(-n2cc(-c3ccc(OC(F)(F)F)cc3)nc2-c2ccc(Cl)cc2)cc1` [Example 10, 2-(4-Chlorophenyl)-1-[4-(methylsulfonyl)phenyl]-4-[4-(trifluoromethoxy)phenyl]-1H-imidazole], with 95 to 97 °C.
The figure for `CS(=O)(=O)c1ccc(-n2cc(C(F)(F)F)nc2-c2ccsc2)cc1` [Example 42] is 194 to 197 °C.
The figure for `CS(=O)(=O)c1ccc(-n2cc(-c3ccc(Br)cc3)nc2-c2ccc(Cl)cc2)cc1` [Example 8, 4-(4-Bromophenyl)-2-(4-chlorophenyl)-1-[4-(methylsulfonyl)phenyl]-1H-imidazole] is 145 to 148 °C; for `NS(=O)(=O)c1ccc(-n2cc(C(F)(F)F)nc2-c2cccnc2)cc1` [Example 46, 4-[2-(Pyridin-3-yl)-4-(trifluoromethyl)-1H-imidazol-1-yl]benzenesulfonamide] it is 213 to 215 °C.
For the compound `CS(=O)(=O)c1ccc(-n2cc(C(F)(F)F)nc2-c2cccnc2)cc1` [Example 28, 3-[1-[4-(Methylsulfonyl)phenyl]-4-trifluoromethyl-1H-imidazol-2-yl]pyridine], the melting point came to 193 °C.
Then `CS(=O)(=O)c1ccc(-n2cc(C(F)(F)F)nc2-c2ccccc2)cc1` [Example 23, 1-[4-(methylsulfonyl)phenyl]-2-phenyl-4-trifluoromethyl-1H-imidazole], with 233 °C; and `CS(=O)(=O)c1ccc(-n2cc(C(F)(F)F)nc2-c2ccccn2)cc1` [Example 29, 2-[1-[4-(Methylsulfonyl)phenyl]-4-trifluoromethyl-1H-imidazol-2-yl]pyridine], with 184 °C; and `Cc1cncc(-c2nc(C(F)(F)F)cn2-c2ccc(S(N)(=O)=O)cc2)c1` [Example 43, 4-[2-(5-Methylpyridin-3-yl)-4-(trifluoromethyl)-1H-imidazol-1-yl]benzenesulfonamide], with 242 to 243 °C.
The figure for `Cc1ccnc(-c2nc(C(F)(F)F)cn2-c2ccc(S(C)(=O)=O)cc2)c1` [Example 34, 4-Methyl-2-[1-[4-(methyloulfonyl)phenyl]-4-trifluoromethyl-1H-imidazol-2-yl]pyridine] is 195 °C.
Then `CS(=O)(=O)c1ccc(-n2cc(CC#N)nc2-c2ccc(Cl)cc2)cc1` [Example 175, 2-(4-Chlorophenyl)-1-[4-(methylsulfonyl)phenyl]-1H-imidazole-4-acetanitrile], with 197 °C; and `CS(=O)(=O)c1ccc(-n2cc(C(F)(F)F)nc2-c2ccc3c(c2)OCO3)cc1` [Example 17, 5-[1-[4-(Methylsulfonyl)phenyl]-4-(trifluoromethyl)-1H-imidazol-2-yl]-1,3-benzodioxole], with 165 °C; and `CS(=O)(=O)c1ccc(-n2cc(C(F)(F)F)nc2-c2cccs2)cc1`, with 182 °C.
The compound `CS(=O)(=O)c1ccc(-n2cc(C(F)(F)F)nc2-c2ccc(Cl)cc2)cc1` [Example 2, 2-(4-Chlorophenyl)-1-[4-(methylsulfonyl)phenyl]-4-(trifluoromethyl)-1H-imidazole] yielded a melting point of 183 °C.
Compound `Cc1ncccc1-c1nc(C(F)(F)F)cn1-c1ccc(S(N)(=O)=O)cc1` [Example 45, 4-[2-(2-Methylpyridin-3-yl)-4-(trifluoromethyl)-1H-imidazol-1-yl]benzenesulfonamide] returned a melting point of 235 to 237 °C.
Then `Cc1ccc(-c2nc(C(F)(F)F)cn2-c2ccc(S(N)(=O)=O)cc2)cn1` [Example 36, 4-[2-(6-Methylpyridin-3-yl)-4-(trifluoromethyl)-1H-imidazol-1-yl]benzenesulfonamide], with 203 °C; and `CS(=O)(=O)c1ccc(-n2cc(COc3ccc(Cl)cc3)nc2-c2ccc(Cl)cc2)cc1` [Example 15, 2-(4-Chlorophenyl)-4-[(4-chlorophenoxy)methyl]-1-[4-(methylsulfonyl)phenyl]-1H-imidazole], with 173 °C; and `CS(=O)(=O)c1ccc(-n2cc(CSC3CCCCC3)nc2-c2ccc(Cl)cc2)cc1` [Example 169, 2-(4-Chlorophenyl)-4-[[(cyclohexyl)thio]methyl]-1-[4-(methylsulfonyl)phenyl]-1H-imidazole], with 48 °C.
The compound `Cc1cn(-c2ccc(S(C)(=O)=O)cc2)c(-c2ccc(Cl)cc2)n1` [Example 5, 2-(4-Chlorophenyl)-1-[4-(methylsulfonyl)phenyl]-4-methyl-1H-imidazole] gave a melting point of 166 °C.
In turn, `CS(=O)(=O)c1ccc(-n2cc(CSc3ccccc3Cl)nc2-c2ccc(Cl)cc2)cc1` [Example 170, 2-(4-Chlorophenyl)-4-[[(2-chlorophenyl)thio)methyl]-1-[4-(methylsulfonyl)phenyl]-1H-imidazole] yielded a melting point of 153 °C.
Then `CS(=O)(=O)c1ccc(-c2nc(C(F)(F)F)cn2-c2ccc(F)cc2)cc1` [Example 4, 1-(4-Fluorophenyl)-2-[4-(methylsulfonyl)phenyl]-4-(trifluoromethyl)-1H-imidazole], with 183 °C.
Then `CS(=O)(=O)c1ccc(-n2cc(C(F)(F)F)nc2-c2ccncc2)cc1` [Example 30, 4-[1-[4-(Methyloulfonyl)phenyl]-4-trifluoromethyl-1H-imidazol-2-yl]pyridine], with 197 °C.
